The record followed here is patent US7514438B2, “Melanin concentrating hormone receptor antagonist” (Amgen, Inc., priority 2003, dated 2009).

Assay [1] concerns the target T1, human MCH 1 receptor (hMCH1R) (Homo sapiens, UniProt Q99705).
T1 construct: expressed in transfected cells; host or cells: HEK 293 (membranes)
Briefly: 125I-MCH ligand binding assay, hMCH. Conditions: HEK 293 membranes, 0.2 nM 125I native-MCH; 100 μM or less list; read-out: IC50 in the hMCH binding assay. The protocol: (§1) Human embryonic kidney cells (293 total) expressing either human, rat, or mouse MCH receptor were harvested from 150 mm culture dishes using PBS. Spinning at 1500 rpm for 2 minutes initially pelleted cells. The resulting pellet was then homogenized in 15 mL ice cold sucrose buffer (25 mM HEPES, 0.3 M sucrose, pH 7.4) with a motorized, glass fitted, Teflon® homogenizer. The homogenate was centrifuged at 48,000×g at 4° C. for 10 minutes, resuspended in 15 mL assay buffer (25 mM HEPES, 10 mM mgCl2, 0.2% BSA, 0.1 mg/mL STI, 0.1 mg/mL Pefabloc®, 1 μM Phosphoramidon, pH 7.4) with a Tissue-Tearor® (Biospec Products) and centrifuged again at 48,000×g for 10 minutes. The pellet was homogenized for a third time in 15 mL assay buffer using the Tissue-Tearor® and again centrifuged at 48,000×g for 10 minutes. The resulting pellet was resuspended in assay buffer at a wet weight concentration of 10-20 mg/mL.
(§2) Binding assays were determined as described below using mouse, rat or human MCH 1 receptors (mMCH1R, rMCH1R, and hMCH1R, respectively) expressed in HEK 293; IC50 values were calculated.
(§3) Binding assays were performed in 96-well U-bottom plates. Membranes (100 μg tissue) were incubated at 30° C. for 90 minutes in assay buffer with various peptides in the presence of 0.2 nM ^125I native-MCH (Perkin-Elmer Life Sciences, Boston, Mass.) in 100 μL total volume. Non-specific binding was assessed in the presence of 1 μM cold native-MCH. The reaction was terminated by rapid filtration through Unfilter-96 GF/C glass fiber filter plates (FilterMate® 196 Harvester, Packard Instrument Co., Meriden, Conn.) pre-soaked in PBS/0.5% BSA, followed by three washes with 300 μL ice-cold water. Bound radioactivity was determined using a TopCount® microplate scintillation and luminescence counter (Packard Instrument Co., Meriden, Conn.). Nonlinear regression analyses of drug concentration curves were performed using GraphPad Prism® (GraphPad Software, Inc., San Diego, Calif.).

Assay [2] deals with T2, rat MCH 1 receptor (rMCH1R) (Rattus norvegicus, UniProt P97639).
T2 construct: expressed in transfected cells; host or cells: HEK 293 (membranes)
T2 sequence (P97639 whole entry): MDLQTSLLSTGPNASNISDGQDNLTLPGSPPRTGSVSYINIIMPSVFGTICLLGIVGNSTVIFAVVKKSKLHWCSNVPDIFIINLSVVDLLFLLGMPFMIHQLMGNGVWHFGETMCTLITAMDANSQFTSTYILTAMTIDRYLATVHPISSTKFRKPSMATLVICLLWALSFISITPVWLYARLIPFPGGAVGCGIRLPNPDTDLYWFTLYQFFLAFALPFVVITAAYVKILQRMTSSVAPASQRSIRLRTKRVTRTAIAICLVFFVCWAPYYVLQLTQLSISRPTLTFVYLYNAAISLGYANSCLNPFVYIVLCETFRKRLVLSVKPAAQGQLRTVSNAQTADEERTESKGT
Put plainly: 125I-MCH ligand binding assay, rMCH. Conditions: HEK 293 membranes, 0.2 nM 125I native-MCH, read-out: IC50 in the rMCH binding assay. The protocol: as §1, §2, §3

Like-named read-outs stand apart in the source and are kept apart here.

T1 sequence (Q99705 whole entry): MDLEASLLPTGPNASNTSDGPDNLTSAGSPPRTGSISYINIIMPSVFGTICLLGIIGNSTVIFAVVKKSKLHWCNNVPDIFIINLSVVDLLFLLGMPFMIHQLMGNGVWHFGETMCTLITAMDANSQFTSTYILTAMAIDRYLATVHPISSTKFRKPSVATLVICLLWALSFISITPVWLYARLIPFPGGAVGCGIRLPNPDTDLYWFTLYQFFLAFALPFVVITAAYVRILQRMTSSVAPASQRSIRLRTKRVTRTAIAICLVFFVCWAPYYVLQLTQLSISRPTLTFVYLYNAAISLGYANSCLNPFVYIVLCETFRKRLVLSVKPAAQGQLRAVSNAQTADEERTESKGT

For `CCOC(=O)Cn1nnnc1[C@H](c1ccccc1)N1CCN(C/C=C/c2ccccc2)CC1` (racemic) [Compound 21], the IC50 in assay [1] and in assay [2] (100 μM or less list) was no more than 100 µM each time. With `CN1CCCC1CCn1nnnc1[C@H](c1ccccc1)N1CCN(C/C=C/c2ccccc2)CC1` (stereo in doubt) [Compound 37, 1-({1-[2-(1-methyl-pyrrolidin-2-yl)ethyl]-1H-tetrazol-5-yl}phenylmethyl)-4-(3-phenylallyl)piperazine], the IC50 in assay [1] and in assay [2] (100 μM or less list) was no more than 100 µM each time. For the molecule `C(=C\c1ccccc1)/CN1CCN([C@@H](c2ccccc2)c2nnnn2CCCN2CCOCC2)CC1` (racemic) [Compound 42], the IC50 – broadly, the concentration at which inhibition is half-maximal – in assay [1] was no more than 100 µM. With `COc1ccccc1[C@@H](c1nnnn1-c1c(C)cccc1C)N1CCN(C/C=C/c2ccccc2)CC1` (racemic) [Compound 67, 1-[[1-(2,6-dimethylphenyl)-1H-tetrazol-5-yl]-(2-methoxyphenyl)methyl]-4-(3-phenylallyl)piperazine], the 50% inhibitory concentration (IC50) in assay [1] was no more than 100 µM. For the molecule `CCCCn1nnnc1[C@H](c1ccccc1)N1CCN(C/C=C/c2ccccc2)CC1` (racemic) [Compound 17, 1-[(1-butyl-1H-tetrazol-5-yl)phenylmethyl]-4-(3-phenylallyl)piperazine], the IC50 in assay [1] is no more than 100 µM. On the same count and under the same terms, under `COC(=O)Cn1nnnc1[C@H](c1ccccc1)N1CCN(C/C=C/c2ccccc2)CC1` (racemic) [Compound 16, (5-{phenyl-[4-(3-phenylallyl)piperazin-1-yl]methyl}tetrazol-1-yl)acetic acid methyl ester] stands no more than 100 µM. Take `Cc1cccc(C)c1-n1nnnc1[C@H](c1cccc(Br)c1)N1CCN(C/C=C/c2ccccc2)CC1` (racemic) [Compound 139, 1-{(3-bromophenyl)-[1-(2,6-dimethylphenyl)-1H-tetrazol-5-yl]methyl}-4-(3-phenylallyl)piperazine]: the IC50 in assay [2] (100 nM or less list) is no more than 0.1 µM; in assay [2] (100 μM or less list) it was no more than 100 µM. Consider `Cc1cccc(C)c1-n1nnnc1[C@H](c1ccc(F)c(F)c1)N1CCN(C/C=C/c2ccccc2)CC1` (racemic) [Compound 124, 1-{(3,4-difluoraphenyl)-[1-(2,6-dimethylphenyl)-1H-tetrazol-5-yl]methyl}-4-(3-phenylallyl)piperazine], for which the IC50 in assay [2] (100 μM or less list) was no more than 100 µM.

Regarding `Cc1cccc(C)c1-n1nnnc1[C@H](COCCc1ccccc1)N1CCN(C/C=C/c2ccccc2)CC1` (racemic) [Compound 85, 1-{1-[1-(2,6-dimethylphenyl)-1H-tetrazol-5-yl]-2-phenethyloxyethyl}-4-(3-phenylallyl)piperazine], the IC50 in assay [1] is no more than 100 µM. Take `COc1ccc([C@@H](c2nnnn2-c2c(C)cccc2C)N2CCN(C/C=C/c3ccccc3)CC2)cc1OC` (racemic) [Compound 128, 1-{(3,4-dimethoxyphenyl)-[1-(2,6-dimethylphenyl)-1H-tetrazol-5-yl]methyl}-4-(3-phenylallyl)piperazine]: in assay [2] (100 μM or less list), the IC50 is no more than 100 µM. `Cc1cccc(C)c1-n1nnnc1[C@H](c1ccc(CC(C)C)cc1)N1CCN(C/C=C/c2ccccc2)CC1` (racemic) [Compound 130, 1-[[1-(2,6-dimethylphenyl)-1H-tetrazol-5-yl]-(4-isobutylphenyl)methyl]-4-(3-phenylallyl)piperazine]: the IC50 in assay [2] (100 μM or less list) was no more than 100 µM. Still for that read-out and setting: under `Cc1cccc(C)c1-n1nnnc1[C@H](c1ccc(Cl)cc1)N1CCN(C/C=C/c2ccccc2)CC1` [Compound 118, 1-{(4-chiorophenyl)-[1-(2,6-dimethylphenyl)-1H-tetrazol-5-yl]methyl}-4-(3-phenylallyl)piperazine] stands no more than 100 µM. `Cc1cccc(C)c1-n1nnnc1[C@H](c1cc(Cl)cc(Cl)c1)N1CCN(C/C=C/c2ccccc2)CC1` (racemic) [Compound 137, 1-{(3,5-dichlorophenyl)-[1-(2,6-dimethylphenyl)-1H-tetrazol-5-yl]methyl}-4-(3-phenylallyl)piperazine]: the IC50 was no more than 0.1 µM in assay [2] (100 nM or less list) and no more than 100 µM in assay [2] (100 μM or less list). Regarding `CC(=O)Nc1ccc([C@@H](c2nnnn2-c2c(C)cccc2C)N2CCN(C/C=C/c3ccccc3)CC2)cc1` (racemic) [Compound 131, n-(4-{[1-(2,6-dimethylphenyl)-1H-tetrazol-5-yl]-[4-(3-phenylallyl)piperazin-1-yl]methyl}phenyl)acetamide], in assay [2] (100 μM or less list), the IC50 was no more than 100 µM. Consider `Cc1cccc(C)c1-n1nnnc1C(c1cccc(C(F)(F)F)c1)N1CCN(CCCc2ccccc2)CC1` (racemic) [Compound 154, 1-[[1-(2,6-dimethylphenyl)-1H-tetrazol-5-yl]-(3-trifluoromethylphenyl)methyl]-4-(3-phenylpropyl)piperazine], for which the IC50 in assay [2] (100 μM or less list) is no more than 100 µM. Consider `CCc1ccc([C@@H](c2nnnn2-c2c(C)cccc2C)N2CCN(C/C=C/c3ccccc3)CC2)cc1` (racemic) [Compound 127, 1-[[1-(2,6-dimethylphenyl)-1H-tetrazol-5-yl]-(4-ethylphenyl)methyl]-4-(3-phenylallyl)piperazine], for which the IC50 in assay [2] (100 μM or less list) is no more than 100 µM. `Cc1cccc(C)c1-n1nnnc1C1(N2CCN(C/C=C/c3ccccc3)CC2)CCN(C)CC1` [Compound 99, 1-{4-[1-(2,6-dimethylphenyl)-1H-tetrazol-5-yl]-1-methylpiperidin-4-yl}-4-(3-phenylallyl)piperazine]: the IC50 in assay [2] (100 μM or less list) was no more than 100 µM. Take `CSc1ccc([C@@H](c2nnnn2-c2c(C)cccc2C)N2CCN(C/C=C/c3ccccc3)CC2)cc1` (racemic) [Compound 126, 1-[[1-(2,6-dimethylphenyl)-1H-tetrazol-5-yl]-(4-methylsulfanylphenyl)methyl]-4-(3-phenylallyl)piperazine]: the half-maximal inhibitory concentration (IC50) in assay [2] (100 μM or less list) is no more than 100 µM. On to `Cc1ccc([C@@H](c2nnnn2-c2c(C)cccc2C)N2CCN(C/C=C/c3ccccc3)CC2)cc1C` (racemic) [Compound 123, 1-{(3,4-dimethylphenyl)-[1-(2,6-dimethylphenyl)-1H-tetrazol-5-yl]methyl}-4-(3-phenylallyl)piperazine], for which the IC50 in assay [2] (100 μM or less list) was no more than 100 µM. For the molecule `COc1ccc([C@@H](c2nnnn2-c2c(C)cccc2C)N2CCN(C/C=C/c3ccccc3)CC2)cc1` (racemic) [Compound 122, 1-[[1-(2,6-dimethylphenyl)-1H-tetrazol-5-yl]-(4-methoxyphenyl)methyl]-4-(3-phenylallyl)piperazine], in assay [2] (100 μM or less list), the IC50 was no more than 100 µM. As to `Cc1cccc(C)c1-n1nnnc1[C@H](c1ccccc1OCc1ccccc1)N1CCN(C/C=C/c2ccccc2)CC1` (racemic) [Compound 66, 1-{(2-benzyloxyphenyl)-[1-(2,6-dimethylphenyl)-1H-tetrazol-5-yl]methyl}-4-(3-phenylallyl)piperazine], in assay [1], the 50% inhibitory concentration (IC50) was no more than 100 µM. With `CCOc1ccc([C@@H](c2nnnn2-c2c(C)cccc2C)N2CCN(C/C=C/c3ccccc3)CC2)cc1` (racemic) [Compound 136, 1-[[1-(2,6-dimethylphenyl)-1H-tetrazol-5-yl]-(4-ethoxyphenyl)methyl]-4-(3-phenylallyl)piperazine], the IC50 is no more than 0.1 µM in assay [2] (100 nM or less list) and no more than 100 µM in assay [2] (100 μM or less list). On to `Cc1cccc(C)c1-n1nnnc1C1(N2CCN(C/C=C/c3ccccc3)CC2)CCN(Cc2ccccc2)CC1` [Compound 91, 1-{1-benzyl-4-[1-(2,6-dimethylphenyl)-1H-tetrazol-5-yl]piperidin-4-yl}-4-(3-phenylallyl)piperazine], for which the 50% inhibitory concentration (IC50) in assay [1] was no more than 100 µM.
